Molecules are shown by their SMILES. Peptide text beside a SMILES is read from it.

The target in the assay is T1, WT ASIC1a (Homo sapiens, UniProt P78348).
T1 construct: expressed in transfected cells; host or cells: Xenopus laevis oocytes injected with cRNA
T1 sequence (P78348 1-528): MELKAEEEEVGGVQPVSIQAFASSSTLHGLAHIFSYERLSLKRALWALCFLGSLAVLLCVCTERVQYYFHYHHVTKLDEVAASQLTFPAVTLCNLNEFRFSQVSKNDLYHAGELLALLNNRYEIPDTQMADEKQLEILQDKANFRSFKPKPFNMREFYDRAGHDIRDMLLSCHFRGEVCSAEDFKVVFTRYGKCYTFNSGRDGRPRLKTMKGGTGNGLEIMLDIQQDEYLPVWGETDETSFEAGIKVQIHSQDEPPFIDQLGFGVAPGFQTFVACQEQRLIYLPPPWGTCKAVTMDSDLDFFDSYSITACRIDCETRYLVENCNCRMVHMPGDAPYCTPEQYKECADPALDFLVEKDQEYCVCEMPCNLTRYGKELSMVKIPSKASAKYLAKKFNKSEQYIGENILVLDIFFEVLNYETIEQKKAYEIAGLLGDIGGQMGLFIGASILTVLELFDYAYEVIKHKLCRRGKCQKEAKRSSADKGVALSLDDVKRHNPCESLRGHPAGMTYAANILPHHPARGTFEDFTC
The experiment in a line: Isust/Ipeak, TEVC in Xenopus oocytes, WT. To be noted: FRRFa in pH7.4 conditioning and pH5 solution, mean ± SEM, n = 7–12, read-out: EC50 for induction of sustained current (Isust/Ipeak). In kind it is cell-based. As for the experimental part:
ASIC1a function was measured by two-electrode voltage-clamp after recombinant expression in Xenopus oocytes. The channels were activated by a pH5 stimulation solution from a conditioning solution of pH7.4. […] We measured the rate of FRRFa unbinding, as the disappearance of the sustained current after a 50-s incubation with 50 μM FRRFa, as 0.025 ± 0.005 s^−1 (n = 8, Fig. 2b). […] To determine the kinetics of FRRFa association on ASIC1a, we pre-applied the peptide at a concentration of 50 μM for different time periods in the conditioning solution and measured the sustained current fraction.
Human ASIC1a[43] had been subcloned into a vector for transcription that contained 5′- and 3′-untranslated regions of Xenopus β-globin mRNA[44]. Point mutations were introduced using QuikChange (Agilent, Basel, Switzerland). Mutations were verified by sequencing (Synergene Biotech, Zurich, Switzerland). Expression in Xenopus laevis oocytes was carried out as described previously. […]
Electrophysiological measurements were performed 1–2 days after cRNA injection. Ion currents were recorded using two-electrode voltage-clamp at a holding potential of −60 mV with a Dagan TEV-200 amplifier (Minneapolis, MN). […] The amplitude of the sustained current was measured in the last two seconds of the pH5 perfusion. […]

In the case of `N=C(N)NCCC[C@H](NC(=O)[C@H](CCCNC(=N)N)NC(=O)[C@@H](N)Cc1ccccc1)C(=O)N[C@@H](Cc1ccccc1)C(N)=O` [FRRFa, Phe-Arg-Arg-Phe-amide] (H-FRRF-NH2), the EC50 was found to be 37 ± 15 µM.
